According to patent US20180044738A1, “METHOD OF DIAGNOSING BREAST CANCER, MONITORING TREATMENT OF BREAST CANCER, AND TREATING BREAST CANCER” (University Of Cincinnati, priority 2016, published 2018):
Where two headings read alike, the source gives them in different places.

Tested on: Xenograft tumors
Text: Xenograft tumors derived from luciferase-expressing MDA-MB-231 and SUM159 cells will be implanted orthotopically in female nude mice. […] Initial dose of the aptamers will follow the previous animal studies (weekly intra-tumoral injection; 2000 pmol each time delivered in 10 sub-injections). The optimal dose will be determined empirically based on the effect on tumor volumes. The lapatinib plus imatinib group will be used to compare the tumor suppression efficacy of drug treatment with the aptamers. […] Tumor volume will be measured weekly with a caliper, and also by an IVIS imaging system (Xenogen) which can reveal potential metastatic sites. Apoptosis will be assessed by TUNEL assay of the tumor tissues; proliferation will be assayed by in vivo BrdU incorporation analysis. Primary tumor with adjacent normal tissues will be examined by hematoxylin/eosin (H&E) staining. Tumor invasion will be assessed based on the extent of infiltration into surrounding tissues, the margins from surrounding tissues, and desomoplastic stromal reaction by smooth muscle actin staining. Human origin of the invasive cells will be confirmed by staining for human cytokeratin.

| Structure (SMILES) | tumor growth (oral gavage, 100 mg/kg of each drug, in a month, preliminary results, data not shown) | tumor growth (mouse, in vivo, po, 100 mg/kg) |
| --- | --- | --- |
| CS(=O)(=O)CCNCc1ccc(-c2ccc3ncnc(Nc4ccc(OCc5cccc(F)c5)c(Cl)c4)c3c2)o1 [lapatinib] | not either drug alone | – |
| Cc1ccc(NC(=O)c2ccc(CN3CCN(C)CC3)cc2)cc1Nc1nccc(-c2cccnc2)n1 [imatinib] | – | not either drug alone |
